Target: T1, USP25 (USP25-His6, Boston Biochem E-546) (Homo sapiens, UniProt Q9UHP3)
T1 construct: His6; purchased Boston Biochem E-546
T1 sequence (Q9UHP3 1-1055): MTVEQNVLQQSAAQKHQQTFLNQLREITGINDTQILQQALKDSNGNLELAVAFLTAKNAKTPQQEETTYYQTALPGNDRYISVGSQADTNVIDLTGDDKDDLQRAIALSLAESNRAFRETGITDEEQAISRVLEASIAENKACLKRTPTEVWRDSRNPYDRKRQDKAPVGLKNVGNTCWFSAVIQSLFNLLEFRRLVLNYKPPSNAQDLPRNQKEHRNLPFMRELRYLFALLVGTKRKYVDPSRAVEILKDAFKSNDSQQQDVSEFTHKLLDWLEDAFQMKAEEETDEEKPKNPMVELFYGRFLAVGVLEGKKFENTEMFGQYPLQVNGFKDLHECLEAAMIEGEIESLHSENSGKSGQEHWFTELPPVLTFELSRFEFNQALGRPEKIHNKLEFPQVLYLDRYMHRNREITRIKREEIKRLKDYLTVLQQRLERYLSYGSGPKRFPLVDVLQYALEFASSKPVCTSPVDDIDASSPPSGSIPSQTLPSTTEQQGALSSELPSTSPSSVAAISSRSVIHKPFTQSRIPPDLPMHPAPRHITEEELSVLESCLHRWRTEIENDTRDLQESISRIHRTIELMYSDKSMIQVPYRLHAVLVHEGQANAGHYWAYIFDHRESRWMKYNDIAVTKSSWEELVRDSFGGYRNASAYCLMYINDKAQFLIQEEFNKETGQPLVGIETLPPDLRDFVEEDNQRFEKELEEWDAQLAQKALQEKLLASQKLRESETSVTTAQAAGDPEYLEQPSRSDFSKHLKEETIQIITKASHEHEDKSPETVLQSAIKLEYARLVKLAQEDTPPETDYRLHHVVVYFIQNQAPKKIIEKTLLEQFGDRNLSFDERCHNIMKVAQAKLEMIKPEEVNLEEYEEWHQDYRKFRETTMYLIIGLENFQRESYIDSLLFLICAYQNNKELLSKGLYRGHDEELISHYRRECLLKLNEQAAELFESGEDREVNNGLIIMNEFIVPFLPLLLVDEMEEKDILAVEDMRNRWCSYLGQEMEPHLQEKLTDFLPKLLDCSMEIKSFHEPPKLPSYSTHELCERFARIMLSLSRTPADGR
Assay: Ubiquitin-Rhodamine 110 Assay for USP25 Activity, Example A-2
Format: biochemical
Conditions: Ubiquitin-Rhodamine 110 assay, Example A-2; read-out: USP25 A-2 IC50 range
Summary of the method: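 Steps: compound dilutions (top 25 μM, 3-fold, 10 points) were preincubated 30 min with 75 pM USP25-His6; 25 nM Ub-Rh110 substrate was added under initial-velocity conditions; after 45 min at room temperature, 10 mM citric acid stopped the reaction before fluorescence reading.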

| SMILES | IC50 |
| --- | --- |
| COC[C@H]1CN(c2ccc3c(c2)OC[C@H](NC(=O)c2sc4nc(C)ccc4c2N)C3)C[C@@H]1N [Example 164, 3-amino-N-[(3R)-7-[(3R,4S)-3-amino-4-(methoxymethyl)pyrrolidin-1-yl]-3,4-dihydro-2H-1-benzopyran-3-yl]-6-methylthieno[2,3-b]pyridine-2-carboxamide] | 0.2 to 2 µM |
| Cc1ccc2c(N)c(C(=O)N[C@H]3COc4cc(N5CC[C@@H]6CNC[C@@H]65)ccc4C3)sc2n1 [Example 165, N-[(3R)-7-[(3aR,6aR)-octahydropyrrolo[2,3-c]pyrrol-1-yl]-3,4-dihydro-2H-1-benzopyran-3-yl]-3-amino-6-methylthieno[2,3-b]pyridine-2-carboxamide] | 0.05 to 0.2 µM |
| Cc1ccc2c(N)c(C(=O)N[C@H]3COc4cc(N5CC[C@H]6CNC[C@H]65)ccc4C3)sc2n1 [Example 166, N-[(3R)-7-[(3aS,6aS)-octahydropyrrolo[2,3-c]pyrrol-1-yl]-3,4-dihydro-2H-1-benzopyran-3-yl]-3-amino-6-methylthieno[2,3-b]pyridine-2-carboxamide] | 0.05 to 0.2 µM |
| Cc1ccc2c(N)c(C(=O)N[C@H]3COc4cc(N5C[C@H](N)[C@H](C(F)F)C5)ccc4C3)sc2n1 [Example 167, 3-amino-N-[(3R)-7-[(3R,4R)-3-amino-4-(difluoromethyl)pyrrolidin-1-yl]-3,4-dihydro-2H-1-benzopyran-3-yl]-6-methylthieno[2,3-b]pyridine-2-carboxamide] | 0.2 to 2 µM |
| Cc1ccc2c(N)c(C(=O)N[C@H]3COc4cc(N5C[C@@H](N)[C@@H](C(F)F)C5)ccc4C3)sc2n1 [Example 168, 3-amino-N-[(3R)-7-[(3S,4S)-3-amino-4-(difluoromethyl)pyrrolidin-1-yl]-3,4-dihydro-2H-1-benzopyran-3-yl]-6-methylthieno[2,3-b]pyridine-2-carboxamide] | 0.2 to 2 µM |
| Cc1ccc2c(N)c(C(=O)N[C@H]3COc4cc(N5CC6CCC(C5)N6)cc(F)c4C3)oc2n1 [Example 170, 3-amino-N-[(3R)-7-{3,8-diazabicyclo[3.2.1]octan-3-yl}-5-fluoro-3,4-dihydro-2H-1-benzopyran-3-yl]-6-methylfuro[2,3-b]pyridine-2-carboxamide] | > 2 µM |
| Cc1ccc2c(N)c(C(=O)N[C@H]3CCc4cc(N5CC6CCC(C5)N6)ccc4C3)oc2n1 [Example 171, 3-amino-N-[(2S)-6-{3,8-diazabicyclo[3.2.1]octan-3-yl]-1,2,3,4-tetrahydronaphthalen-2-yl]-6-methylfuro[2,3-b]pyridine-2-carboxamide] | > 2 µM |
| Cc1ccc2c(N)c(C(=O)N[C@H]3COc4c(F)c(N5CC6CCC(C5)N6)cc(F)c4C3)oc2n1 [Example 172, 3-amino-N-[(3R)-7-{3,8-diazabicyclo[3.2.1]octan-3-yl}-5,8-difluoro-3,4-dihydro-2H-1-benzopyran-3-yl]-6-methylfuro[2,3-b]pyridine-2-carboxamide] | > 2 µM |
| Cc1ccc2c(N)c(C(=O)N[C@H]3COc4nc(N5CC6CCC(C5)N6)ccc4C3)sc2n1 [Example 173, 3-amino-N-[(3R)-7-{3,8-diazabicyclo[3.2.1]octan-3-yl]-2H,3H,4H-pyrano[2,3-b]pyridin-3-yl]-6-methylthieno[2,3-b]pyridine-2-carboxamide] | 0.2 to 2 µM |
| CO[C@H]1CN(c2cc(F)c3c(c2C#N)OC[C@H](NC(=O)c2sc4nc(C)cnc4c2N)C3)C[C@@H]1N [Example 174, 7-amino-N-[(3R)-7-[(3S,4S)-3-amino-4-methoxypyrrolidin-1-yl]-8-cyano-5-fluoro-3,4-dihydro-2H-1-benzopyran-3-yl]-3-methylthieno[2,3-b]pyrazine-6-carboxamide] | > 2 µM |
| CO[C@H]1CN(c2cc(F)c3c(c2C#N)OC[C@H](NC(=O)c2sc4nc(C)ccc4c2N)C3)C[C@@H]1N [Example 175, 3-amino-N-[(3R)-7-[(3S,4S)-3-amino-4-methoxypyrrolidin-1-yl]-8-cyano-5-fluoro-3,4-dihydro-2H-1-benzopyran-3-yl]-6-methylthieno[2,3-b]pyridine-2-carboxamide] | > 2 µM |
| CO[C@H]1CN(c2cc3c(cc2C#N)C[C@@H](NC(=O)c2sc4nc(C)cnc4c2N)CO3)C[C@@H]1N [Example 176, 7-amino-N-[(3R)-7-[(3S,4S)-3-amino-4-methoxypyrrolidin-1-yl]-6-cyano-3,4-dihydro-2H-1-benzopyran-3-yl]-3-methylthieno[2,3-b]pyrazine-6-carboxamide] | 0.05 to 0.2 µM |

Source: patent publication US11524966B1 (Valo Early Discovery, Inc., priority 2017, dated 2022)
